Converted amounts (≈) assume the structure as drawn.
Legend:
Type in all cases: functional, organism-based
Plasmodium falciparum [1] = test: Antimalarial activity as growth inhibition after 48 hrs against chloroquine-resistant Plasmodium falciparum FDL-NG
Plasmodium falciparum [2] = test: Antimalarial activity as growth inhibition after 48 hrs against chloroquine-sensitive Plasmodium falciparum FDL-B
Plasmodium falciparum [3] = test: Antimalarial activity as reduced schizont maturation after 24 hrs against chloroquine-resistant Plasmodium falciparum FDL-NG
Plasmodium falciparum [4] = test: Antimalarial activity as reduced schizont maturation against chloroquine-sensitive Plasmodium falciparum FDL-B after 24 hrs

SMILES	IC50 (Plasmodium falciparum [1]) [µg/mL]	IC50 (Plasmodium falciparum [2]) [µg/mL]	IC50 (Plasmodium falciparum [3]) [µg/mL]	IC50 (Plasmodium falciparum [4]) [µg/mL]	IC90 (Plasmodium falciparum [1]) [µg/mL]	IC90 (Plasmodium falciparum [3]) [µg/mL]	IC90 (Plasmodium falciparum [4]) [µg/mL]	IC90 (Plasmodium falciparum [2]) [µg/mL]
C=C(C#N)C(O)c1cc(C)cnc1Cl (centres undefined)	10.5 (≈ 50.3 µM)	1.3 (≈ 6.23 µM)	22.5 (≈ 108 µM)	1.25 (≈ 5.99 µM)	–	–	–	–
C=C(C(=O)OC)C(O)c1cc(-c2ccccc2)cnc1Cl (centres undefined)	10.8 (≈ 35.4 µM)	115 (≈ 379 µM)	5 (≈ 16.5 µM)	45 (≈ 148 µM)	–	–	–	–
C=C(C#N)C(O)c1ccc(C(=O)OC)nc1Cl (centres undefined)	6.75 (≈ 26.7 µM)	7 (≈ 27.7 µM)	5.75 (≈ 22.8 µM)	3.4 (≈ 13.5 µM)	–	–	–	–
C=C(C(=O)OC)C(O)c1cc(C)cnc1Cl (centres undefined)	5.75 (≈ 23.8 µM)	28.5 (≈ 118 µM)	3.05 (≈ 12.6 µM)	18 (≈ 74.5 µM)	27.5 (≈ 114 µM)	7 (≈ 29 µM)	32 (≈ 132 µM)	–
C=C(C#N)C(O)c1cc(CC)cnc1Cl (centres undefined)	5.5 (≈ 24.7 µM)	4 (≈ 18 µM)	2.5 (≈ 11.2 µM)	1.8 (≈ 8.08 µM)	–	–	–	–
C=C(C#N)C(O)c1cc(-c2ccccc2)cnc1Cl (centres undefined)	2.2 (≈ 8.13 µM)	8 (≈ 29.6 µM)	0.9 (≈ 3.32 µM)	3.6 (≈ 13.3 µM)	–	–	–	–
CCN(CC)CCCC(C)Nc1ccnc2cc(Cl)ccc12 (centres undefined) [CHLOROQUINE]	–	–	–	–	–	–	0.018 (≈ 0.0563 µM)	0.02 (≈ 0.0625 µM)

— ChEMBL document CHEMBL1141951, “Anti-malarial activity of Baylis-Hillman adducts from substituted 2-chloronicotinaldehydes” (Bioorg Med Chem Lett, 2005)
